These molecules were tested on HEK293 cells (assay: Preliminary screening as mRNA vectors, EGFP mRNA transfection of HEK293 cells). Settings: EGFP mRNA 50 ng per well, 96-well plates; percentage of GFP fluorescent cells relative to total number of cells (Hoechst).
Format: cell-based
Outline: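 Screening format: EGFP mRNA transfection (50 ng/well) into HEK293 in 10% FBS-supplemented DMEM. Percent green fluorescent cells, normalised to Hoechst nuclear count, gave the value; Lipofectamine2000 was the reference transfectant.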
With `CCCCCCCCCCCCCNc1nc(NCCN2CCCCC2)nc(SCCCCCCCCCCC)n1` [Compound D4S11N13] the “Absolute mRNA transfection efficiency in HEK293 cells” value (“Absolute mRNA transfection efficiency” below) was 15.4%. In the case of `CCCCCCCCCCCCN(CCCCCCCCCCCC)c1nc(NCCN2CCCCC2)nc(SCCCCCCCC)n1` [D4S8^2N12], the “Absolute mRNA transfection efficiency” value is reported as 1.1%. `CCCCCCCCCCSc1nc(NCCN2CCCCC2)nc(SCCCCCC)n1` [Compound D4S6S10] was tested, and the “Absolute mRNA transfection efficiency” value was 0.3%. In the case of `CCCCCCCCCCCCSc1nc(NCCCCCCC)nc(NCCN2CCN(C)CC2)n1` [Compound D5S12N7], the “Absolute mRNA transfection efficiency” value is reported as 9.9%. `CCCCCCCCCCCCSc1nc(NCCN(C)C)nc(SCCCCCCC)n1` [Compound D1S7S12] was tested, and the “Absolute mRNA transfection efficiency” value was 3.1%. With `CCCCCCCNc1nc(NCCN2CCN(C)CC2)nc(SCCCCCC)n1` [Compound D5S6N7] the “Absolute mRNA transfection efficiency” value was 4.3%. In the case of `CCCCCCCCCNc1nc(NCCCN2CCOCC2)nc(SCCCCCCCC)n1` [Compound D8S8N9], the “Absolute mRNA transfection efficiency” value is reported as 3.5%. For `CCCCCCCCCCCCCCCNc1nc(NCCCN2CCOCC2)nc(SCCCCCCCCCCC)n1` [Compound D8S11N15], the “Absolute mRNA transfection efficiency” value was 0.5%. For `CCCCCCCCCCCCCCCCCCNc1nc(NCCN2CCCCC2)nc(SCCCCCCCCCCCCCCCCCC)n1` [Compound D4S18N18], the “Absolute mRNA transfection efficiency” value was 0.2%. With `CCCCCCCCSc1nc(NCCN2CCCCC2)nc(SCCCCCCC)n1` [Compound D4S7S8] the “Absolute mRNA transfection efficiency” value was 5.9%. `CCCCCCCCCCCCCCCSc1nc(NCCCCCCCCCCCC)nc(NCCCN(C)C)n1` [Compound D6S15N12] was tested, and the “Absolute mRNA transfection efficiency” value was 9.6%. In the case of `CCCCCCCCCCCCNc1nc(NCCN(CC)CC)nc(SCCCCCCCC)n1` [Compound D7S8N12], the “Absolute mRNA transfection efficiency” value is reported as 9.5%. For `CCCCCCCCCCSc1nc(NCC2CCN(C)CC2)nc(SCCCCCCC)n1` [Compound D10S7S10], the “Absolute mRNA transfection efficiency” value was 55.8%. With `CCCCCCCCCCCCCCCNc1nc(NCCCN(C)C)nc(SCCCCCCCCCC)n1` [Compound D6S10N15] the “Absolute mRNA transfection efficiency” value was 3.5%. `CCCCCCCCCCCCCCCCCCNc1nc(NCCCN2CCOCC2)nc(SCCCCCC)n1` [Compound D8S6N18] was tested, and the “Absolute mRNA transfection efficiency” value was 0.7%. For `CCCCCCCCCCCNc1nc(NCCCN2CCN(C)CC2)nc(SCCCCCC)n1` [Compound D9S6N11], the “Absolute mRNA transfection efficiency” value was 11.9%. In the case of `CCCCCCCCCSc1nc(NCCCN2CCOCC2)nc(SCCCCCCCC)n1` [Compound D8S8S9], the “Absolute mRNA transfection efficiency” value is reported as 47.2%. `CCCCCCCCCCCCN(CCCCCCCCCCCC)c1nc(NCCN(C)C)nc(SCCCCCCCCCC)n1` [D1S10^2N12] was tested, and the “Absolute mRNA transfection efficiency” value was 0.4%. With `CCCCCCCCCCCCSc1nc(NCCN2CCCC2)nc(SCCCCCCCC)n1` [Compound D3S8S12] the “Absolute mRNA transfection efficiency” value was 3.5%. For `CCCCCCCCCCCCCCCCSc1nc(NCCCCCCCCCCC)nc(NCCCN2CCN(C)CC2)n1` [Compound D9S16N11], the “Absolute mRNA transfection efficiency” value was 68.4%. For `CCCCCCCCCCCCCCCSc1nc(NCCN(C)C)nc(N(CCCCCCCCCCCC)CCCCCCCCCCCC)n1` [D1S15^2N12], the “Absolute mRNA transfection efficiency” value was 0.3%. `CCCCCCCCCCCCCCSc1nc(NCCCCCCCCC)nc(NCCN(CC)CC)n1` [Compound D7S14N9] was tested, and the “Absolute mRNA transfection efficiency” value was 29.8%. With `CCCCCCCCCCCCCCCCCCNc1nc(NCCN2CCOCC2)nc(SCCCCCC)n1` [Compound D2S6N18] the “Absolute mRNA transfection efficiency” value was 4.5%. In the case of `CCCCCCCCCSc1nc(NCC2CCN(C)CC2)nc(SCCCCCCCC)n1` [Compound D10S8S9], the “Absolute mRNA transfection efficiency” value is reported as 37.6%. For `CCCCCCCCCCCCCCCSc1nc(NCCCCCC)nc(NCCCN(C)C)n1` [Compound D6S15N6], the “Absolute mRNA transfection efficiency” value was 37.4%. `CCCCCCCCCCCCCNc1nc(NCCN2CCCCC2)nc(SCCCCCC)n1` [Compound D4S6N13] was tested, and the “Absolute mRNA transfection efficiency” value was 2.1%. `CCCCCCCCCCCCCCCCSc1nc(NCCCCCCCCCCCCCCC)nc(NCCN(C)C)n1` [Compound D1S16N15] was tested, and the “Absolute mRNA transfection efficiency” value was 1.4%.
